Measured values as given in patent publication US20080220103A1, “METHOD FOR TREATING/CONTROLLING/KILLING FUNGI AND BACTERIA ON LIVING ANIMALS” (priority 2005, published 2008).
≈ marks a conversion by molar mass, not a printed value. Where “and” joins values, the source holds several entries; their conditions need not be identical. Identical values can stand only once. Like-named read-outs stand apart in the source and are kept apart here.

Key:
C. parapsilosis = assay: MIC, CLSI M27-A2; format: cell-based, Candida parapsilosis
Protocol: (§1) Minimum Inhibitory Concentration (MIC): Minimum inhibitory concentrations of synthetic and semisynthetic and natural products against dermatophytes were determined using a modification of the Clinical Laboratory Standards Institute (CLSI, formerly National Committee of Clinical Laboratory Standards, NCCLS) M38A standard method for dermatophytes, while MIC of these agents against Candida species were determined using the CLSI M27-A2 methodology. The method used to determine the MIC against bacteria was based on the CLSI document M7-A7.
(§2) The remaining essential oils were prepared in a dilution range of 0.03-16 μg/ml. For Candida the MIC was read at 24 hours and defined as the lowest concentration to inhibit 50% of fungal growth as compared to the growth control (Table 4).

E. floccosum = assay: Minimum fungicidal concentration (Canton et al.); format: cell-based, Epidermophyton floccosum; details: for MFC: Epidermophyton floccosum
Protocol: (§3) Minimum fungicidal concentration (MFC): The minimum fungicidal concentrations of various agents were determined using the technique described by Canton et al. (Antimicrob Agents Chemother. 2004 8:2477-82). In that method, fungal conidia were collected following growth on potato dextrose agar (PDA) plates and were used to inoculate 96-well plates containing different concentrations of agents. Following incubation at 35° C. for 4 days (for dermatophytes) or 24 hours (for yeast), wells showing no visible growth were cultured to determine the MFC (defined as the lowest concentration of a given agent that kills>99.999% of fungal conidia or spores). The MFC value represents the level of the agent at which spores or conidia were killed.

All dermatophytes [1] = assay: Minimum fungicidal concentration, pooled dermatophytes; format: cell-based, E. floccosum, T. rubrum, T. mentagrophytes; details: All dermatophytes, n = 18
Protocol: as §3
(§4) In the following Tables, MIC50 and MIC90 are defined as the minimal concentrations of a compound that can inhibit 50% and 90% of the tested organisms, respectively.

C. albicans = assay: MIC, CLSI M27-A2; format: cell-based, Candida albicans
Protocol: as §1, §2

T. mentagrophytes [2] = assay: MIC, modified CLSI M38A broth dilution; format: cell-based, Trichophyton mentagrophytes
Protocol: as §1
(§5) For dermatophytes, serial dilutions of terbinafine, tolnaftate were prepared in a range of 0.004-2 μg/ml, while for miconazole concentrations ranged between 0.015-8 μg/ml. Finally, for essential oils, the concentrations tested were between 0.03-16 μg/ml. The only exception was tea tree oil where dilutions were prepared in a range of 0.0078-4 μg/ml. The MIC was read at 4 days post inoculation and defined as the lowest concentration of an agent to inhibit 80% of fungal growth as compared to the growth control (Table 2).

S. epidermidis = assay: MIC, CLSI M7-A7, Mueller-Hinton; format: cell-based; details: for MIC: read-out: MIC
Protocol: as §1
(§6) For bacterial species, the medium used to evaluate the antibacterial activity of agents and essential oils was Mueller-Hinton (Oxoid Ltd., Basingstoke, Hampshire, England). Serial dilutions of miconazole, terbinafine, and tolnaftate were prepared in a range of 0.125-64 μg/ml and serial dilutions of tea tree oil were prepared in a range of 0.0078-4 μg/ml, while those for the rest of the essential oils were prepared in a range 0.031-16 μg/ml.

T. rubrum = assay: Minimum fungicidal concentration (Canton et al.); format: cell-based, Trichophyton rubrum; details: for MFC: Trichophyton rubrum
Protocol: as §3

T. mentagrophytes [3] = assay: Minimum fungicidal concentration (Canton et al.); format: cell-based, Trichophyton mentagrophytes; details: for MFC: Trichophyton mentagrophytes
Protocol: as §3

All yeasts = assay: MIC, CLSI M27-A2, pooled yeasts; format: cell-based, C. albicans, C. parapsilosis; details: n = 12
Protocol: as §1, §2, §4

All dermatophytes [4] = assay: MIC, modified CLSI M38A, pooled dermatophytes; format: cell-based, E. floccosum, T. rubrum, T. mentagrophytes
Protocol: as §1, §5, §4

S. aureus = assay: MIC, CLSI M7-A7, Mueller-Hinton; format: cell-based, Staphylococcus aureus
Protocol: as §1, §6

[5] = Lodderomyces parapsilosis, C. parapsilosis, n = 6
[6] = Candida albicans, C. albicans, n = 6
[7] = Trichophyton mentagrophytes, T. mentagrophytes, n = 6
[8] = Staphylococcus epidermidis, S. epidermidis, n = 6
[9] = Staphylococcus aureus, S. aureus

In the case of `CN(C/C=C/C#CC(C)(C)C)Cc1cccc2ccccc12` [Terbinafine, terbinafine], the “MIC Range” value (C. parapsilosis; C. parapsilosis, n = 6) is reported as 0.25-0.25 μg/mL, the “MIC Range” value (C. parapsilosis; C. parapsilosis, n = 6, listed as terbinafine) is reported as 0.25 µg/mL (≈ 0.858 µM) and the MIC (C. parapsilosis; Lodderomyces parapsilosis, C. parapsilosis strain 7629) is reported as 0.25 µg/mL (≈ 0.858 µM). For the same compound, the MIC (C. parapsilosis; Lodderomyces parapsilosis, C. parapsilosis strain 7668) was 0.25 µg/mL (≈ 0.858 µM), the MIC (C. parapsilosis; Lodderomyces parapsilosis, C. parapsilosis strain 7672) was 0.25 µg/mL (≈ 0.858 µM) and the MIC (C. parapsilosis; Lodderomyces parapsilosis, C. parapsilosis strain 7995) was 0.25 µg/mL (≈ 0.858 µM). It also gave an MIC (C. parapsilosis; Lodderomyces parapsilosis, C. parapsilosis strain 8148) of 0.25 µg/mL (≈ 0.858 µM), an MIC (C. parapsilosis; Lodderomyces parapsilosis, C. parapsilosis strain 8442) of 0.25 µg/mL (≈ 0.858 µM) and an MIC50 (C. parapsilosis; [5]) of 0.25 µg/mL (≈ 0.858 µM). The MIC90 (C. parapsilosis; [5]) was 0.25 µg/mL (≈ 0.858 µM), the “MFC range (row MIC Range)” value (E. floccosum; E. floccosum, n = 6) was 0.03 to 0.125 µg/mL and the MFC (E. floccosum; E. floccosum strain 1666, read-out: MFC) was 0.06 µg/mL (≈ 0.206 µM). The MFC (E. floccosum; E. floccosum strain 1798, read-out: MFC) was 0.03 µg/mL (≈ 0.103 µM), the MFC (E. floccosum; E. floccosum strain 1925, read-out: MFC) was 0.06 µg/mL (≈ 0.206 µM) and the MFC (E. floccosum; E. floccosum strain 1926, read-out: MFC) was 0.06 µg/mL (≈ 0.206 µM). It also gave an MFC (E. floccosum; E. floccosum strain 1961, read-out: MFC) of 0.125 µg/mL (≈ 0.429 µM), an MFC (E. floccosum; E. floccosum strain 2165, read-out: MFC) of 0.125 µg/mL (≈ 0.429 µM) and an MFC (E. floccosum; E. floccosum, n = 6, read-out: MFC, row MIC50) of 0.06 µg/mL (≈ 0.206 µM). The MFC (E. floccosum; E. floccosum, n = 6, read-out: MFC, row MIC90) was 0.125 µg/mL (≈ 0.429 µM), the “MFC Range” value (All dermatophytes [1]) was 0.03 to 0.125 µg/mL and the MFC (All dermatophytes [1]; read-out: MFC, row MIC50) was 0.06 µg/mL (≈ 0.206 µM). The MFC (All dermatophytes [1]; read-out: MFC, row MIC90) was 0.125 µg/mL (≈ 0.429 µM), the MIC (C. albicans; C. albicans strain 8280 (multi-resistant)) was greater than 64 µg/mL and the MIC (C. albicans; Candida albicans, 24 h, C. albicans strain 1740, 50% inhibition, 24 hours, read-out: MIC) was 1 µg/mL (≈ 3.43 µM). The MIC (C. albicans; Candida albicans, C. albicans strain 2108, read-out: MIC) was 0.5 µg/mL (≈ 1.72 µM), the MIC (C. albicans; Candida albicans, C. albicans strain 2153, read-out: MIC) was 0.5 µg/mL (≈ 1.72 µM) and the MIC (C. albicans; Candida albicans, C. albicans strain 8280 (multi-resistant), read-out: MIC) was no less than 64 µg/mL. For the same compound, the MIC (C. albicans; Candida albicans, C. albicans strain 8283, read-out: MIC) was 0.5 µg/mL (≈ 1.72 µM), the MIC (C. albicans; Candida albicans, C. albicans strain 8364, read-out: MIC) was 2 µg/mL (≈ 6.86 µM) and the MIC (C. albicans; Candida albicans, C. albicans, 5 strains, read-out: MIC values) was 0.5 to 2 µg/mL (≈ 1.72 to 6.86 µM). For the same compound, the MIC50 (C. albicans; [6]) was 0.5 µg/mL (≈ 1.72 µM), the MIC90 (C. albicans; [6]) was 2 µg/mL (≈ 6.86 µM) and the “MIC Range” value (T. mentagrophytes [2]; T. mentagrophytes, n = 6) was 0.004 to 0.03 µg/mL. The MIC (T. mentagrophytes [2]; Trichophyton mentagrophytes, T. mentagrophytes strain 1720) was 0.004 µg/mL (≈ 0.0137 µM), the MIC (T. mentagrophytes [2]; Trichophyton mentagrophytes, T. mentagrophytes strain 2124) was 0.03 µg/mL (≈ 0.103 µM) and the MIC (T. mentagrophytes [2]; Trichophyton mentagrophytes, T. mentagrophytes strain 2125) was 0.03 µg/mL (≈ 0.103 µM). For the same compound, the MIC (T. mentagrophytes [2]; Trichophyton mentagrophytes, T. mentagrophytes strain 2126) was 0.004 µg/mL (≈ 0.0137 µM), the MIC (T. mentagrophytes [2]; Trichophyton mentagrophytes, T. mentagrophytes strain 2127) was 0.03 µg/mL (≈ 0.103 µM) and the MIC (T. mentagrophytes [2]; Trichophyton mentagrophytes, T. mentagrophytes strain 2128) was 0.03 µg/mL (≈ 0.103 µM). The MIC50 (T. mentagrophytes [2]; [7]) was 0.03 µg/mL (≈ 0.103 µM), the MIC90 (T. mentagrophytes [2]; [7]) was 0.03 µg/mL (≈ 0.103 µM) and the “MIC Range” value (S. epidermidis; S. epidermidis, n = 6) was greater than 64 µg/mL. For the same compound, the MIC (S. epidermidis; Staphylococcus epidermidis, S. epidermidis strain 8472) was greater than 64 µg/mL, the MIC (S. epidermidis; Staphylococcus epidermidis, S. epidermidis strain 8473) was greater than 64 µg/mL and the MIC (S. epidermidis; Staphylococcus epidermidis, S. epidermidis strain 8474) was greater than 64 µg/mL. The MIC (S. epidermidis; Staphylococcus epidermidis, S. epidermidis strain 8475) was greater than 64 µg/mL, the MIC (S. epidermidis; Staphylococcus epidermidis, S. epidermidis strain 8476) was greater than 64 µg/mL and the MIC (S. epidermidis; Staphylococcus epidermidis, S. epidermidis strain 8477) was greater than 64 µg/mL. The MIC50 (S. epidermidis; [8]) was greater than 64 µg/mL, the MIC90 (S. epidermidis; [8]) was greater than 64 µg/mL and the “MFC range (row MIC Range)” value (T. rubrum; T. rubrum, n = 6) was 0.03 to 0.125 µg/mL. It also gave an MFC (T. rubrum; T. rubrum strain 1967, read-out: MFC) of 0.125 µg/mL (≈ 0.429 µM), an MFC (T. rubrum; T. rubrum strain 2098, read-out: MFC) of 0.06 µg/mL (≈ 0.206 µM) and an MFC (T. rubrum; T. rubrum strain 2246, read-out: MFC) of 0.06 µg/mL (≈ 0.206 µM). For the same compound, the MFC (T. rubrum; T. rubrum strain 8063, read-out: MFC) was 0.06 µg/mL (≈ 0.206 µM), the MFC (T. rubrum; T. rubrum strain 8071, read-out: MFC) was 0.06 µg/mL (≈ 0.206 µM) and the MFC (T. rubrum; T. rubrum strain 8092, read-out: MFC) was 0.03 µg/mL (≈ 0.103 µM). The MFC (T. rubrum; T. rubrum, n = 6, read-out: MFC, row MIC50) was 0.06 µg/mL (≈ 0.206 µM), the MFC (T. rubrum; T. rubrum, n = 6, read-out: MFC, row MIC90) was 0.125 µg/mL (≈ 0.429 µM) and the “MFC range (row MIC Range)” value (T. mentagrophytes [3]; T. mentagrophytes, n = 6) was 0.06 to 0.125 µg/mL. For the same compound, the MFC (T. mentagrophytes [3]; T. mentagrophytes strain 2124, read-out: MFC) was 0.125 µg/mL (≈ 0.429 µM), the MFC (T. mentagrophytes [3]; T. mentagrophytes strain 2125, read-out: MFC) was 0.125 µg/mL (≈ 0.429 µM) and the MFC (T. mentagrophytes [3]; T. mentagrophytes strain 2127, read-out: MFC) was 0.06 µg/mL (≈ 0.206 µM). For the same compound, the MFC (T. mentagrophytes [3]; T. mentagrophytes strain 2128, read-out: MFC) was 0.125 µg/mL (≈ 0.429 µM), the MFC (T. mentagrophytes [3]; T. mentagrophytes, n = 6, read-out: MFC, row MIC50) was 0.125 µg/mL (≈ 0.429 µM) and the MFC (T. mentagrophytes [3]; T. mentagrophytes, n = 6, read-out: MFC, row MIC90) was 0.125 µg/mL (≈ 0.429 µM). It also gave an MIC50 (All yeasts) of 0.25 µg/mL (≈ 0.858 µM), an MIC90 (All yeasts) of 2 µg/mL (≈ 6.86 µM) and an MIC50 (All dermatophytes [4]; n = 18) of 0.03 µg/mL (≈ 0.103 µM). The MIC90 (All dermatophytes [4]; n = 18) was 0.06 µg/mL (≈ 0.206 µM), the “MIC Range” value (All dermatophytes [4]; n = 18) was 0.015 µg/mL and 0.008 to 0.015 µg/mL and the “MIC Range” value (All dermatophytes [4]; n = 18, listed as terbinafine) was 0.008 to 0.06 µg/mL. The MIC (S. aureus; S. aureus strain 733) was greater than 64 µg/mL, the MIC (S. aureus; S. aureus strain 734) was greater than 64 µg/mL and the MIC (S. aureus; S. aureus strain 8470) was greater than 64 µg/mL. For the same compound, the “MIC Range” value (S. aureus; S. aureus, n = 6) was greater than 64 µg/mL, the MIC50 (S. aureus; [9]) was greater than 64 µg/mL and the MIC90 (S. aureus; [9]) was greater than 64 µg/mL. The MIC (S. aureus; Staphylococcus aureus, S. aureus strain 730, 80% inhibition, 16 h, read-out: MIC) was greater than 64 µg/mL and the MIC (S. aureus; Staphylococcus aureus, S. aureus strain 732, read-out: MIC) was greater than 64 µg/mL.
